Activity calls are given as the source filed them. The calls are words filed in the database; no cut-off is given here.
Columns and labels:
[1] = target: NACHT, LRR and PYD domains-containing protein 3 (Mus musculus) (UniProt Q8R4B8); experiment: Inhibition of NLRP3 inflammasome activation in LPS/nigericin-treated mouse J774A.1 cells assessed as decrease in pyroptosis at 20 uM pretreated for 0.5 hrs followed by stimulation with nigericin for 1 hr by fluorescent microscopic analysis; assay type: cell-based; settings: J774.A1, time 1.5 hrs
Chain of NACHT, LRR and PYD domains-containing protein 3 (Mus musculus) (Q8R4B8 whole entry, the tested form may be a part): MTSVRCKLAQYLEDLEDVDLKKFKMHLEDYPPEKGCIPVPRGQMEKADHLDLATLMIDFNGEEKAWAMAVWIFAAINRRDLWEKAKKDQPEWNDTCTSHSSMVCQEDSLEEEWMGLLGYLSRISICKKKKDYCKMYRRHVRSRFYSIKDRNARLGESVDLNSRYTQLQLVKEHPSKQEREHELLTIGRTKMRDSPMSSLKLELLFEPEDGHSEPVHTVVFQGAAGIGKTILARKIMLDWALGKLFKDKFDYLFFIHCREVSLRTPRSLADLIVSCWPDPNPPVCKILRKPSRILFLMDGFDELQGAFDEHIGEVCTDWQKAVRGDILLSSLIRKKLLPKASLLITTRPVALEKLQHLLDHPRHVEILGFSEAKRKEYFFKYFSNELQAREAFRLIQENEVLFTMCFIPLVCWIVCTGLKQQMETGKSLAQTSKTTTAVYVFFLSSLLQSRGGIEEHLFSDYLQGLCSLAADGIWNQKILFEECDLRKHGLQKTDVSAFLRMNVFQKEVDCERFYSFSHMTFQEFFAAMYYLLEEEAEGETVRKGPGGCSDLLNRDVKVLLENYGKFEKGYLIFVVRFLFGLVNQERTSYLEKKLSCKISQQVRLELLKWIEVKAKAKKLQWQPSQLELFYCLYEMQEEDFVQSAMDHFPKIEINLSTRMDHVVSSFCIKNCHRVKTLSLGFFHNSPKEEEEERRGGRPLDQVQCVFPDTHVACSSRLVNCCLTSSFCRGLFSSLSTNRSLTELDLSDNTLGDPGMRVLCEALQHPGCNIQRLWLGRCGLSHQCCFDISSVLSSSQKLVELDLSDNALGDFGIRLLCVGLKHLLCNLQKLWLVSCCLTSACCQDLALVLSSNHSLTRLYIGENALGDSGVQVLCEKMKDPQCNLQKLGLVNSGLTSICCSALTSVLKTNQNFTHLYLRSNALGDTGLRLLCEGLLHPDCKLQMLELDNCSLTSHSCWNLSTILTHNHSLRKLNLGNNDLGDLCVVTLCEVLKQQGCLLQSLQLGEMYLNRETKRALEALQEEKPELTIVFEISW

[2] = target: NACHT, LRR and PYD domains-containing protein 3 (Mus musculus) (UniProt Q8R4B8); experiment: Inhibition of NLRP3 inflammasome activation in LPS/nigericin-treated mouse J774A.1 cells assessed as decrease in caspase-1 level pretreated for 0.5 hrs followed by stimulation with nigericin for 1 hr by Western blot analysis; assay type: cell-based; settings: J774.A1, time 1.5 hrs
[3] = target: NACHT, LRR and PYD domains-containing protein 3 (Mus musculus, UniProt Q8R4B8); experiment: Inhibition of NLRP3 inflammasome activation in LPS/nigericin-treated mouse J774A.1 cells assessed as decrease in IL-1beta level pretreated for 0.5 hrs followed by stimulation with nigericin for 1 hr by ELISA; assay type: cell-based, J774.A1
Chain of NACHT, LRR and PYD domains-containing protein 3 (Q8R4B8 whole entry, the tested form may be a part): as above

[4] = target: NACHT, LRR and PYD domains-containing protein 3 (Mus musculus) (UniProt Q8R4B8); experiment: Inhibition of NLRP3 inflammasome activation in LPS/nigericin-treated mouse J774A.1 cells assessed as decrease in IL-1beta level pretreated for 0.5 hrs followed by stimulation with nigericin for 1 hr by Western blot analysis; assay type: cell-based; settings: J774.A1, time 1.5 hrs

Compound | inhibition [1] | inhibition [2] | IC50 [3] [nM] | inhibition [4]
C=C1[C@@H](OC(C)=O)CC[C@]23C=C(C=O)[C@@H](OC(C)=O)C[C@@]2(C)[C@H](C)CC[C@@]13C | Active | Active | 5500 | Active
CC(C)(O)c1coc(S(=O)(=O)NC(=O)Nc2c3c(cc4c2CCC4)CCC3)c1 |  |  | 23.1 | 

From ChEMBL document CHEMBL5126656, “Callintegers A and B, Unusual Tricyclo[4.4.0.09,10]tetradecane Clerodane Diterpenoids from Callicarpa integerrima with Inhibitory Effects on NLRP3 Inflammasome Activation” (J Nat Prod, 2022)
